Assays:
Format in all cases: biochemical
Sulf-2 = molecular target: T1, Sulf-2 (Homo sapiens, UniProt Q8IWU5); test: Inhibition of Sulf-2-catalysed desulfation of 4-MUS to fluorescent MU; details: for inhibition at 1000 µM: 1 mM compound, 4-MUS substrate, means of two or more determinations, read-out: Sulf-2% inh @ 1 mM; for IC50: non-linear regression, 7 inhibitor concentrations in duplicate, mean ± SEM
T1 construct: host or cells: 293T cells, transiently transfected
Description: (§1) Compounds were assayed for their ability to inhibit the Sulf-2-catalysed desulfation of 4-methylumbelliferyl sulfate (4-MUS) to the fluorescent 4-methylumbelliferone (MU). To determine their sulfatase selectivity, inhibition of aryl sulfatases A (ARSA) and B (ARSB) was also assessed. To date no suitable benchmark inhibitors of these sulfatase have been reported. […] In the majority of cases the presence of a substituent on the B-ring was detrimental to Sulf-2 inhibition when compared with unsubstituted biphenyl sulfamate 76. Aminosulfates 54 and 62 and carboxylic acid 15 retained potency. […] Compounds 8, 10, 15, 50 and 51 were also relatively potent ARSA inhibitors. […] Aminosulfates 56 and 63 were the best Sulf-2 inhibitors lacking a trichloroethylsulfamate group.
1 – Biological assay protocols
Compounds were screened using 4-MUS as a substrate for Sulf-2 according to a protocol described by Morimoto-Tomita et al.1 Briefly 293T cells were transiently transfected with pcDNA3.1/Myc-His(-)-HSulf-2 DNA (Addgene) and TransIT-LT1 Transfection Reagent (Mirus) using a transfection mixture at the ratio 1:3 (µg DNA:
µL transfection reagent) in Opti-MEM I reduced serum medium (Gibco). Conditioned medium containing Sulf-2 was collected after 3 days and bound to HIS-Select Nickel affinity gel (Sigma) overnight at 4 °C. Beads were washed three times with washing buffer containing 50 mM HEPES (pH 7.5), 300 mM NaCl, 0.05% Tween 20, followed by washing once with washing buffer containing no tween. Beads were suspended in 50 mM Hepes (pH 7.5) and used in inhibition assays. 20 μL of bead slurry was incubated with 1 mM compound (in DMSO) plus 10X reaction buffer (500 mM HEPES pH 7.5, 100 mM CaCl2) for 1 h at 37 °C. The reaction was started by the addition of 20 μL of 20 mM 4-MUS (final concentration of 8 mM) and incubated at 37 °C for 1 h. The reaction was stopped with 100 μL 1 M Tris buffer (pH 10.4) and read at 460 nm following excitation at 355 nm in FLUOstar Omega plate reader (BMG Labtech) using Omega data analysis software. […]

aryl sulfatase A (ARSA) = molecular target: T2, aryl sulfatase A (ARSA) (Homo sapiens, UniProt P15289); test: ARSA inhibition assay with 4-MUS substrate; details: for inhibition at 1000 µM: 1 mM compound, 4-MUS substrate, means of two or more determinations, read-out: ARSA% inh @ 1 mM
T2 construct: purchased R & D Systems
T2 sequence (P15289 19-507): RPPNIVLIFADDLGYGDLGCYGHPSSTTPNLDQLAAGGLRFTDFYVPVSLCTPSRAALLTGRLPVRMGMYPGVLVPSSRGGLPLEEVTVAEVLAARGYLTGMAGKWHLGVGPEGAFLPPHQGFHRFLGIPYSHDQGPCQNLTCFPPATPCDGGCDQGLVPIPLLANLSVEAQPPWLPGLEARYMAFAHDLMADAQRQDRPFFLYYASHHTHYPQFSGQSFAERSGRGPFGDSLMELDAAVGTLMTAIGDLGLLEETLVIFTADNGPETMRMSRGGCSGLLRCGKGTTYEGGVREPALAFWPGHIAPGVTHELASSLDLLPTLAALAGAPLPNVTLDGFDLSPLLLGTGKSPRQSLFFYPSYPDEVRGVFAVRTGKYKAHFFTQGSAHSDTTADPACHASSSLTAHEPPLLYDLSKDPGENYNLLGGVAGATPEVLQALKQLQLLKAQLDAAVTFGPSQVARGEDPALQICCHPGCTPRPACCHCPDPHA
Description: as §1
(§2) 1 – Biological assay protocols […]
(§3) Omega data analysis software.
(§4) ARSA and ARSB assay protocols
(§5) Compounds were screened in a 96-well black plate (Sterilin) using 4-MUS as a substrate, using 50 μL reaction mixture containing 40 ng of the commercially available enzymes (ARSA or ARSB from R & D Systems), 50 mM HEPES (pH = 4.5), 10 mM CaCl2, 1 mM test compound (dissolved in DMSO; final concentration of DMSO in reaction = 2%), and H2O (45 μL). The assay mixture was incubated for 1 h at 37 °C, followed by addition of 5 μL of 4-MUS (Km = 1.6 mM for ARSA and 612 μM for ARSB), and incubation for a further 1 h at 37 °C. The reaction was stopped with 100 μL of 1 M Tris (pH = 10.5) and read at 460 nm following excitation at 355 nm in FLUOstar Omega plate reader (BMG Labtech) using Omega data analysis software.

aryl sulfatase B (ARSB) = molecular target: T3, aryl sulfatase B (ARSB) (Homo sapiens, UniProt P15848); test: ARSB inhibition assay with 4-MUS substrate; details: for inhibition at 1000 µM: 1 mM compound, 4-MUS substrate, means of two or more determinations, read-out: ARSB% inh @ 1 mM; for IC50: non-linear regression, 7 inhibitor concentrations in duplicate, mean ± SEM
T3 construct: purchased R & D Systems
Description: as §1, §2, §3, §4, §5

[1] = non-linear regression, 7 inhibitor concentrations in duplicate, mean ± SEM

T1 sequence (Q8IWU5 25-870): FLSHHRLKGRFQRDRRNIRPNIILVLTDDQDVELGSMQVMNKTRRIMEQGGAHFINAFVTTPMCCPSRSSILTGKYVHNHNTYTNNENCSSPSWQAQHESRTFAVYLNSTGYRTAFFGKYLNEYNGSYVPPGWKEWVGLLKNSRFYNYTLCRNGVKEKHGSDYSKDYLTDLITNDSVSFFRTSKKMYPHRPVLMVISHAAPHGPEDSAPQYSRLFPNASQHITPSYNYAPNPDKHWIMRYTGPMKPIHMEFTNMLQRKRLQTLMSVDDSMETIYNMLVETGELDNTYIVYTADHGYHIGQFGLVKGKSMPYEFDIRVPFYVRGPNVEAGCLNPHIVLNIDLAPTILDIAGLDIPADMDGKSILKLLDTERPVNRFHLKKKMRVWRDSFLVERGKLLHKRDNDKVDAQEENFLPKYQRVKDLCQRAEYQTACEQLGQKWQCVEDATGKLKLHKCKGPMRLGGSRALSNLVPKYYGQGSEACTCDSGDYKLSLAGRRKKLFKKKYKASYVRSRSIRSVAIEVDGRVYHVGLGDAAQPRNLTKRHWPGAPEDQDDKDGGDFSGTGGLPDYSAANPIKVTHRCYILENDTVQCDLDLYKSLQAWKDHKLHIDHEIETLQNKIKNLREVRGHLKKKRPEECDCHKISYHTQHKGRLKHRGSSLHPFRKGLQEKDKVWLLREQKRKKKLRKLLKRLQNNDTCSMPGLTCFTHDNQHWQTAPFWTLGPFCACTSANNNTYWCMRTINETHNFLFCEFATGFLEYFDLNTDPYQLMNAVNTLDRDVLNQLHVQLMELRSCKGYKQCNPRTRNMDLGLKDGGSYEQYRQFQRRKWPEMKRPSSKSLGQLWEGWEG
T3 sequence (P15848 37-533, species assumed): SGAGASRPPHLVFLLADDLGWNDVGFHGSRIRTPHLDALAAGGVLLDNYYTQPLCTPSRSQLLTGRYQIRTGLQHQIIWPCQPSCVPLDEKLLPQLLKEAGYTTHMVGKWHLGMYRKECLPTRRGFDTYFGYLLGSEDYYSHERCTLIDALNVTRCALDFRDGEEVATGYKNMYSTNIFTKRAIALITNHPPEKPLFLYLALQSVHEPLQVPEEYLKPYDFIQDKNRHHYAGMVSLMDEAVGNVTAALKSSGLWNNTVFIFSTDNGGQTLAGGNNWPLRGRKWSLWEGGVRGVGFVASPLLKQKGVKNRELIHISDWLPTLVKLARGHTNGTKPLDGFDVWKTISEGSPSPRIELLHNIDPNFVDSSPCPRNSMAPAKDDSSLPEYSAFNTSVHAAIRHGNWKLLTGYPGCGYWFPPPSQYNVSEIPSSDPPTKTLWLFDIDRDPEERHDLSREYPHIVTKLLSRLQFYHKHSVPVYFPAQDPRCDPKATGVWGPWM

Row | SMILES | inhibition at 1000 µM (Sulf-2) [%] | inhibition at 1000 µM (aryl sulfatase A (ARSA)) [%] | inhibition at 1000 µM (aryl sulfatase B (ARSB)) [%] | IC50 (Sulf-2) [µM] | IC50 (aryl sulfatase A (ARSA); [1]) [µM] | IC50 (aryl sulfatase B (ARSB)) [µM] | ARSA IC50 (aryl sulfatase A (ARSA); [1]) | ARSA inhibition over concentration range (aryl sulfatase A (ARSA); concentration range 0.025–1 mM, IC50 could not be determined)
1 | COC(=O)c1ccccc1-c1cccc(OS(N)(=O)=O)c1 [Compound 8] | 20 | 86 | 0 | – | – | – | – | –
2 | NS(=O)(=O)Oc1cccc(-c2cccc(C(=O)O)c2)c1 [Compound 9] | 12 | 59 | 0 | – | – | – | – | –
3 | NS(=O)(=O)Oc1cccc(-c2ccc(C(=O)O)cc2)c1 [Compound 10] | 22 | 85 | 0 | – | – | – | – | –
4 | Nc1ccccc1-c1cccc(OS(N)(=O)=O)c1 [Compound 11] | 21 | 0 | 0 | – | – | – | – | –
5 | Nc1cccc(-c2cccc(OS(N)(=O)=O)c2)c1 [Compound 12] | 20 | 0 | 0 | – | – | – | – | –
6 | Nc1ccc(-c2cccc(OS(N)(=O)=O)c2)cc1 [Compound 13] | 6 | 61 | 0 | – | – | – | – | –
7 | NS(=O)(=O)Oc1cccc(-c2ccccc2C(=O)O)c1 [Compound 15] | 31 | 98 | 0 | – | – | – | – | –
8 | Nc1ccccc1Oc1cccc(OS(N)(=O)=O)c1 [Compound 25] | 28 | 75 | 17 | – | – | – | – | –
9 | Nc1cccc(Oc2cccc(OS(N)(=O)=O)c2)c1 [Compound 26] | 31 | 75 | 0 | – | – | – | – | –
10 | Nc1ccc(Oc2cccc(OS(N)(=O)=O)c2)cc1 [Compound 27] | 14 | 75 | 0 | – | – | – | – | –
11 | CC(=O)Nc1ccccc1-c1cccc(OS(N)(=O)=O)c1 [Compound 34] | 4 | 33 | 0 | – | – | – | – | –
12 | CC(=O)Nc1cccc(-c2cccc(OS(N)(=O)=O)c2)c1 [Compound 35] | 8 | 52 | 33 | – | – | – | – | –
13 | CC(=O)Nc1ccc(-c2cccc(OS(N)(=O)=O)c2)cc1 [Compound 36] | 3 | 0 | 0 | – | – | – | – | –
14 | CC(=O)Nc1ccccc1Oc1cccc(OS(N)(=O)=O)c1 [Compound 37] | 11 | 29 | 48 | – | – | – | – | –
15 | CC(=O)Nc1cccc(Oc2cccc(OS(N)(=O)=O)c2)c1 [Compound 38] | 10 | 57 | 0 | – | – | – | – | –
16 | CC(=O)Nc1ccc(Oc2cccc(OS(N)(=O)=O)c2)cc1 [Compound 39] | 14 | 45 | 0 | – | – | – | – | –
17 | NS(=O)(=O)Oc1cccc(-c2cccc(NS(=O)(=O)OCC(Cl)(Cl)Cl)c2)c1 [Compound 50] | 99 | 92 | 67 | 167 ± 5 | 55 ± 11 | 130 ± 6 | – | –
18 | NS(=O)(=O)Oc1cccc(-c2ccc(NS(=O)(=O)OCC(Cl)(Cl)Cl)cc2)c1 [Compound 51] | 96 | 99 | 68 | 566 ± 28 | 91 ± 4 | 101 ± 8 | – | –
19 | NS(=O)(=O)Oc1cccc(Oc2cccc(NS(=O)(=O)OCC(Cl)(Cl)Cl)c2)c1 [Compound 52] | 100 | 100 | 96 | – | – | – | – | –

Row | SMILES | inhibition at 1000 µM (Sulf-2) [%] | inhibition at 1000 µM (aryl sulfatase A (ARSA)) [%] | inhibition at 1000 µM (aryl sulfatase B (ARSB)) [%] | IC50 (Sulf-2) [µM] | IC50 (aryl sulfatase A (ARSA); [1]) [µM] | IC50 (aryl sulfatase B (ARSB)) [µM] | ARSA IC50 (aryl sulfatase A (ARSA); [1]) | ARSA inhibition over concentration range (aryl sulfatase A (ARSA); concentration range 0.025–1 mM, IC50 could not be determined)
20 | NS(=O)(=O)Oc1cccc(Oc2ccc(NS(=O)(=O)OCC(Cl)(Cl)Cl)cc2)c1 [Compound 53] | 98 | 96 | 86 | 390 ± 11 | 108 ± 2 | 116 ± 10 | – | –
21 | NS(=O)(=O)Oc1cccc(-c2cccc(NS(=O)(=O)O)c2)c1 [Compound 54] | 31 | 0 | 0 | – | – | – | – | –
22 | NS(=O)(=O)Oc1cccc(-c2ccc(NS(=O)(=O)O)cc2)c1 [Compound 55] | 4 | 0 | 0 | – | – | – | – | –
23 | NS(=O)(=O)Oc1cccc(Oc2cccc(NS(=O)(=O)O)c2)c1 [Compound 56] | 58 | 95 | 85 | – | – | – | – | –
24 | NS(=O)(=O)Oc1cccc(Oc2ccc(NS(=O)(=O)O)cc2)c1 [Compound 57] | 13 | 34 | 77 | – | – | – | – | –
25 | NS(=O)(=O)Oc1cccc(-c2ccccc2N(S(=O)(=O)OCC(Cl)(Cl)Cl)S(=O)(=O)OCC(Cl)(Cl)Cl)c1 [Compound 60] | 10 | 63 | 0 | – | – | – | – | –
26 | NS(=O)(=O)Oc1cccc(Oc2ccccc2N(S(=O)(=O)OCC(Cl)(Cl)Cl)S(=O)(=O)OCC(Cl)(Cl)Cl)c1 [Compound 61] | 18 | 82 | 40 | – | – | – | – | –
27 | NS(=O)(=O)Oc1cccc(-c2ccccc2NS(=O)(=O)O)c1 [Compound 62] | 37 | 26 | 0 | – | – | – | – | –
28 | NS(=O)(=O)Oc1cccc(Oc2ccccc2NS(=O)(=O)O)c1 [Compound 63] | 56 | 54 | 93 | – | – | – | – | –
29 | NS(=O)(=O)Oc1cccc(Oc2ccccc2C(=O)O)c1 [Compound 73] | 10 | 44 | 0 | – | – | – | – | –
30 | NS(=O)(=O)Oc1cccc(Oc2cccc(C(=O)O)c2)c1 [Compound 74] | 30 | 49 | 0 | – | – | – | – | –
31 | NS(=O)(=O)Oc1cccc(Oc2ccc(C(=O)O)cc2)c1 [Compound 75] | 23 | 33 | 0 | – | – | – | – | –
32 | NS(=O)(=O)Oc1cccc(-c2ccccc2)c1 [Compound 76] | 38 | 14 | 65 | – | – | – | – | –
33 | CN(C)S(=O)(=O)Oc1cccc(-c2ccccc2)c1 [Compound 77] | 0 | – | – | – | – | – | – | –
34 | NS(=O)(=O)Oc1cccc(Oc2ccccc2)c1 [Compound 78] | 32 | – | – | – | – | – | – | –
35 | O=S(=O)(Nc1cccc(-c2ccccc2)c1)OCC(Cl)(Cl)Cl [Compound 79] | 100 | 0 | 61 | 254 ± 3 | – | 30 ± 11 | No inhibition | –
36 | O=S(=O)(Nc1cccc(Oc2ccccc2)c1)OCC(Cl)(Cl)Cl [Compound 80] | 99 | 74 | 99 | 298 ± 3 | – | 34 ± 9 | – | Concentration-dependent inhibition was not observed
37 | O=S(=O)(OCC(Cl)(Cl)Cl)Oc1cccc(-c2ccccc2)c1 [Compound 81] | 1 | 70 | 85 | – | – | – | – | –

From publication PMC5477036, “Design and synthesis of biphenyl and biphenyl ether inhibitors of sulfatases” (Chemical Science, 2016)
